According to US20250114387A1, “PHARMACEUTICAL COMPOSITION COMPRISING ENAVOGLIFLOZIN FOR PREVENTING OR TREATING OBESITY IN CANINE ANIMALS” (DAEWOONG PHARMACEUTICAL CO., LTD., priority 2022, published 2025):

Test system: obese dogs
Experiment: Clinical trial in obese dogs: urine test strips, urinary glucose excretion
Format: in vivo
Description: A total of 20 dogs were selected and divided into 4 groups with 5 dogs in each group: a normal obese control (OC); hereinafter, referred to as a control (OC)), an enavogliflozin 0.2-administered group, an enavogliflozin 0.5-administered group, and an enavogliflozin 1-administered group. The control was fed regular feed, and the enavogliflozin-administered groups were fed regular feed supplemented with enavogliflozin at doses of 0.2, 0.5, or 1 mg/kg, respectively. The feed was supplemented with enavogliflozin once a day for 8 weeks and given orally.
Serum insulin concentrations were measured 2, 4, 6, 8, and 10 weeks after the start of enavogliflozin administration using a Quantikine Canine Insulin ELISA kit (Catalog no. DINS00, R&D Systems, Minneapolis, MN, USA) according to the manufacturer's protocol. […]

[1] = 0.2 mg/kg once a day oral for 8 weeks, 10 weeks
[2] = 0.2 mg/kg once a day oral, 2 weeks
[3] = 0.2 mg/kg once a day oral, 4 weeks
[4] = 0.2 mg/kg once a day oral, 6 weeks
[5] = 0.2 mg/kg once a day oral, 8 weeks
[6] = 0.5 mg/kg once a day oral for 8 weeks, 10 weeks
[7] = 0.5 mg/kg once a day oral, 2 weeks
[8] = 0.5 mg/kg once a day oral, 4 weeks
[9] = 0.5 mg/kg once a day oral, 6 weeks
[10] = 0.5 mg/kg once a day oral, 8 weeks
[11] = 1 mg/kg once a day oral for 8 weeks, 10 weeks
[12] = 1 mg/kg once a day oral, 2 weeks
[13] = 1 mg/kg once a day oral, 4 weeks
[14] = 1 mg/kg once a day oral, 6 weeks
[15] = 1 mg/kg once a day oral, 8 weeks

**Q.** Which results are given for `OC[C@H]1O[C@@H](c2cc(Cc3ccc(C4CC4)cc3)c(Cl)c3c2CCO3)[C@H](O)[C@@H](O)[C@@H]1O` [Enavogliflozin, enavogliflozin]?
**A.** Urine test - Glucose detection: number of dogs with grade +++, 3 [1]: 2; Urine test - Glucose detection: number of dogs with grade +++, 4 [1]: 1; Urine test - Glucose detection: number of dogs with grade ++, 2 [1]: 1; Urine test - Glucose detection: number of dogs with grade +, 1 [1]: 1; Urine test - Glucose detection: number of dogs with grade −, 0 [1]: 0; Urine test - Glucose detection: number of dogs with grade +++, 3 [2]: 1; Urine test - Glucose detection: number of dogs with grade +++, 4 [2]: 1; Urine test - Glucose detection: number of dogs with grade ++, 2 [2]: 0; Urine test - Glucose detection: number of dogs with grade +, 1 [2]: 3; Urine test - Glucose detection: number of dogs with grade −, 0 [2]: 0; Urine test - Glucose detection: number of dogs with grade +++, 3 [3]: 1; Urine test - Glucose detection: number of dogs with grade +++, 4 [3]: 1; Urine test - Glucose detection: number of dogs with grade ++, 2 [3]: 1; Urine test - Glucose detection: number of dogs with grade +, 1 [3]: 2; Urine test - Glucose detection: number of dogs with grade −, 0 [3]: 0; Urine test - Glucose detection: number of dogs with grade +++, 3 [4]: 1; Urine test - Glucose detection: number of dogs with grade +++, 4 [4]: 1; Urine test - Glucose detection: number of dogs with grade ++, 2 [4]: 0; Urine test - Glucose detection: number of dogs with grade +, 1 [4]: 3; Urine test - Glucose detection: number of dogs with grade −, 0 [4]: 0; Urine test - Glucose detection: number of dogs with grade +++, 3 [5]: 1; Urine test - Glucose detection: number of dogs with grade +++, 4 [5]: 1; Urine test - Glucose detection: number of dogs with grade ++, 2 [5]: 2; Urine test - Glucose detection: number of dogs with grade +, 1 [5]: 1; Urine test - Glucose detection: number of dogs with grade −, 0 [5]: 0; Urine test - Glucose detection: number of dogs with grade +++, 3 [6]: 1; Urine test - Glucose detection: number of dogs with grade +++, 4 [6]: 1; Urine test - Glucose detection: number of dogs with grade ++, 2 [6]: 1; Urine test - Glucose detection: number of dogs with grade +, 1 [6]: 1; Urine test - Glucose detection: number of dogs with grade −, 0 [6]: 1; Urine test - Glucose detection: number of dogs with grade +++, 3 [7]: 0; Urine test - Glucose detection: number of dogs with grade +++, 4 [7]: 3; Urine test - Glucose detection: number of dogs with grade ++, 2 [7]: 1; Urine test - Glucose detection: number of dogs with grade +, 1 [7]: 1; Urine test - Glucose detection: number of dogs with grade −, 0 [7]: 0; Urine test - Glucose detection: number of dogs with grade +++, 3 [8]: 0; Urine test - Glucose detection: number of dogs with grade +++, 4 [8]: 5; Urine test - Glucose detection: number of dogs with grade ++, 2 [8]: 0; Urine test - Glucose detection: number of dogs with grade +, 1 [8]: 0; Urine test - Glucose detection: number of dogs with grade −, 0 [8]: 0; Urine test - Glucose detection: number of dogs with grade +++, 3 [9]: 0; Urine test - Glucose detection: number of dogs with grade +++, 4 [9]: 5; Urine test - Glucose detection: number of dogs with grade ++, 2 [9]: 0; Urine test - Glucose detection: number of dogs with grade +, 1 [9]: 0; Urine test - Glucose detection: number of dogs with grade −, 0 [9]: 0; Urine test - Glucose detection: number of dogs with grade +++, 3 [10]: 0; Urine test - Glucose detection: number of dogs with grade +++, 4 [10]: 4; Urine test - Glucose detection: number of dogs with grade ++, 2 [10]: 1; Urine test - Glucose detection: number of dogs with grade +, 1 [10]: 0; Urine test - Glucose detection: number of dogs with grade −, 0 [10]: 0; Urine test - Glucose detection: number of dogs with grade +++, 3 [11]: 1; Urine test - Glucose detection: number of dogs with grade +++, 4 [11]: 1; Urine test - Glucose detection: number of dogs with grade ++, 2 [11]: 0; Urine test - Glucose detection: number of dogs with grade +, 1 [11]: 0; Urine test - Glucose detection: number of dogs with grade −, 0 [11]: 3; Urine test - Glucose detection: number of dogs with grade +++, 3 [12]: 2; Urine test - Glucose detection: number of dogs with grade +++, 4 [12]: 3; Urine test - Glucose detection: number of dogs with grade ++, 2 [12]: 0; Urine test - Glucose detection: number of dogs with grade +, 1 [12]: 0; Urine test - Glucose detection: number of dogs with grade −, 0 [12]: 0; Urine test - Glucose detection: number of dogs with grade +++, 3 [13]: 0; Urine test - Glucose detection: number of dogs with grade +++, 4 [13]: 5; Urine test - Glucose detection: number of dogs with grade ++, 2 [13]: 0; Urine test - Glucose detection: number of dogs with grade +, 1 [13]: 0; Urine test - Glucose detection: number of dogs with grade −, 0 [13]: 0; Urine test - Glucose detection: number of dogs with grade +++, 3 [14]: 0; Urine test - Glucose detection: number of dogs with grade +++, 4 [14]: 5; Urine test - Glucose detection: number of dogs with grade ++, 2 [14]: 0; Urine test - Glucose detection: number of dogs with grade +, 1 [14]: 0; Urine test - Glucose detection: number of dogs with grade −, 0 [14]: 0; Urine test - Glucose detection: number of dogs with grade +++, 3 [15]: 1; Urine test - Glucose detection: number of dogs with grade +++, 4 [15]: 5; Urine test - Glucose detection: number of dogs with grade ++, 2 [15]: 0; Urine test - Glucose detection: number of dogs with grade +, 1 [15]: 0; Urine test - Glucose detection: number of dogs with grade −, 0 [15]: 0; Urinary glucose (GLU) excretion (enavogliflozin-administered groups, particularly 0.2 mg/kg): higher
